Source: patent US20250099517A1, “Use of Lactobacillus reuteri Y7 strain for prevention or treatment of ocular diseases” (Taipei Medical University, priority 2023, published 2025)

What was measured:
[1] = food intakes of mice during the experiment; format: in vivo, C57BL/6 mice; conditions: for food intakes of mice: LU, lutein 6.15 mg/kg bw oral daily, blue light, Mean±S.E.M., n=6
Method: In the present invention, six-week-old male C57BL/6 mice were placed in a breeding cage in which the following feeding conditions were kept: temperature, 22±2° C., humidity, 55±5%, and the light-dark cycle of 12-hour light and 12-hour dark. The mice were fed with fodders at the adaptive phase for one week; general solid fodders for test animals were administered to mice of the control group and mice during the adaptive phase. The initial day was defined as Day 0 when the adaptive phase for the mice was over. From the next week, the mice were interfered with samples under test and exposed to blue light. During the experiments, the mice were monitored for weights as well as water intakes and checked for any physiological change. The data for experiments through electroretinography (ERG), fndus photography (FP), fundus fluorescein angiograph (FFA), spectral-domain optical coherence tomography (SD-OCT) and intraocular pressure (IOP) were collected at Day 0, Day 21 and Day 35, as shown in FIG. 1 for the experimental process. The C57BL/6 mice, which weighed between 23 and 25 g, were divided into seven groups randomly. In each group, the six mice induced by blue light successfully were incorporated in experiments. The samples dissolved in deuterium-depleted water (DDW) were fed to mice through oral tubes once a day. The groups were named and introduced as follows: • (1) Solvent not classified group (NC): The mice were fed with 0.2 ml deuterium-depleted water (DDW) through tubes; • (2) Negative control group (Blue light (BL)): The mice were fed with 0.2 ml deuterium-depleted water (DDW) through tubes and exposed to blue light; • (3) Low-dosage Y7 probiotics group […]): The mice were fed with low-dosage Y7 probiotics (probiotic counts of 1.0×10^8 CFU/ml dissolved in 0.2 ml DDW per day) and exposed to blue light; • (4) High-dosage Y7 probiotics group […]): The mice were fed with high-dosage Y7 probiotics (probiotic counts of 1.0×10^9 CFU/ml dissolved in 0.2 ml DDW per day) and exposed to blue light; • (5) Positive control group (lutein (LU)): The mice were fed with lutein and exposed to blue light. The recommended human dosage of lutein is 30 mg. The mouse cage (48×25×20 cm) placed inside a stainless ventilated box was equipped with blue light boards as blue light sources around and above. In the experiment of animals exposed to blue light, six-week-old mice staying in the mouse cage were fed with drinking water as well as fodders and exposed to 400 Lux blue light illumination under the light-dark cycle of 12-hour light and 12-hour dark. The experiment was aimed at causing mice' late dry macular disease induced by chronic light injuries for simulating a human being's macular disease after long-term exposure to short-wavelength blue light from 3C products in daily life. All data written as the form of mean±standard error of the mean (S.E.M.) were used in the statistical analysis through the one-way ANOVA and the Newman-Keuls test; p<0.05 denoted statistical difference. In the experiment, the software for the statistical analysis was Graph pad Prism (v9.2.0). The data such as food intake, water intake, body weight, organ weight and other clinical examination data were analyzed with the one-way ANOVA.

total retinal thickness = experiment: H&E sections of retinal tissues, total retinal thickness by ImageJ; format: in vivo, C57BL/6 mice; conditions: Day 35, p<0.05
Method: The C57BL/6 mice, which weighed between 23 and 25 g, were divided into seven groups randomly. In each group, the six mice induced by blue light successfully were incorporated in experiments. The samples dissolved in deuterium-depleted water (DDW) were fed to mice through oral tubes once a day. The groups were named and introduced as follows: • (1) Solvent not classified group (NC): The mice were fed with 0.2 ml deuterium-depleted water (DDW) through tubes; • (2) Negative control group (Blue light (BL)): The mice were fed with 0.2 ml deuterium-depleted water (DDW) through tubes and exposed to blue light; • (3) Low-dosage Y7 probiotics group […]): The mice were fed with low-dosage Y7 probiotics (probiotic counts of 1.0×10^8 CFU/ml dissolved in 0.2 ml DDW per day) and exposed to blue light; • (4) High-dosage Y7 probiotics group […]): The mice were fed with high-dosage Y7 probiotics (probiotic counts of 1.0×10^9 CFU/ml dissolved in 0.2 ml DDW per day) and exposed to blue light; • (5) Positive control group (lutein (LU)): The mice were fed with lutein and exposed to blue light. The recommended human dosage of lutein is 30 mg. The mouse cage (48×25×20 cm) placed inside a stainless ventilated box was equipped with blue light boards as blue light sources around and above. In the experiment of animals exposed to blue light, six-week-old mice staying in the mouse cage were fed with drinking water as well as fodders and exposed to 400 Lux blue light illumination under the light-dark cycle of 12-hour light and 12-hour dark. The experiment was aimed at causing mice' late dry macular disease induced by chronic light injuries for simulating a human being's macular disease after long-term exposure to short-wavelength blue light from 3C products in daily life. The eyes of a mouse sacrificed after the experiment on Day 35 were taken out for H&E stains. The section of a retinal tissue was checked for any change in each layer of a sacrificed mouse's retina and compared with experimental results of SD-OCT. The images for a fraction of retina below the pupil vertically and nearest to optic nerves were captured from a section through the 200× magnification, as shown in FIG. 6a.

Row | Compound | food intakes compared with the BL group ([1]; mouse, in vivo) | total retinal thickness compared with the BL group (total retinal thickness; Y7H high-dosage group) | total retinal thickness compared with the NC group (total retinal thickness; Y7H high-dosage group) | total retinal thickness compared with the BL group (total retinal thickness; Y7L low-dosage group) | total retinal thickness compared with the NC group (total retinal thickness; Y7L low-dosage group) | food intakes of mice ([1]; Day7) | food intakes of mice ([1]; Day14) | food intakes of mice ([1]; Day21) | food intakes of mice ([1]; Day28) | food intakes of mice ([1]; Day35) | total retinal thickness compared with the BL group (total retinal thickness; LU lutein group) | total retinal thickness compared with the NC group (total retinal thickness; LU lutein group)
1 | Lactobacillus reuteri Y7 [Y7 probiotics] | significantly higher | significant difference | decreased significantly | significant difference | decreased significantly | – | – | – | – | – | – | –
2 | CC1=C[C@H](O)CC(C)(C)[C@H]1/C=C/C(C)=C/C=C/C(C)=C/C=C/C=C(C)/C=C/C=C(C)/C=C/C1=C(C)C[C@@H](O)CC1(C)C [lutein, reference compound] | – | – | – | – | – | 5.71 ± 1.17 | 4.17 ± 1.15 | 5.04 ± 1.82 | 5.33 ± 2.17 | 4.43 ± 2.12 | significant difference | decreased significantly
